From ChEMBL document CHEMBL1151820, “Antagonists of the P2X(7) receptor. From lead identification to drug development” (J Med Chem, 2009)

Tests used:
P2X purinoceptor 7 [1] = biological target: T1, P2X purinoceptor 7 (Homo sapiens, UniProt Q99572); experiment: Antagonist activity at human P2X7 receptor expressed in HEK293 cells assessed as inhibition of BzATP-induced calcium influx; assay type: functional, cell-based
T1 sequence (Q99572 whole entry): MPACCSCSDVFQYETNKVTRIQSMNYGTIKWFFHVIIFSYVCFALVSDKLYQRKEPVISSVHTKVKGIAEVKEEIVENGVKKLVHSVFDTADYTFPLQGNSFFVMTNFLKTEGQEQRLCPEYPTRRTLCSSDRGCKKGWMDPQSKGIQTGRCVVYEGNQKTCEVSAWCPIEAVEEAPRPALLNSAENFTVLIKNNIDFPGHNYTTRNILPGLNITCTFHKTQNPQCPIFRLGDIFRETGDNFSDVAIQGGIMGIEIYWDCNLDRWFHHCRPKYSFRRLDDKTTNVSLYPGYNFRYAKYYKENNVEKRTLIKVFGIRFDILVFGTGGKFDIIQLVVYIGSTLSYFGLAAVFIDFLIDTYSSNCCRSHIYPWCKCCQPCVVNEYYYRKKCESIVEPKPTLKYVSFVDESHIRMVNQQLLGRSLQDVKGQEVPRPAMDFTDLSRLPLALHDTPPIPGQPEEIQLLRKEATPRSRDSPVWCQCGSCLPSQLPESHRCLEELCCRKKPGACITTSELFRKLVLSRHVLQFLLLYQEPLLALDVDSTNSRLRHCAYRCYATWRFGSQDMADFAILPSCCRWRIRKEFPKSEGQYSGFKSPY

[2] = Plasma clearance in iv dosed rat; assay type: ADME, organism-based
[3] = Half life in iv dosed rat; assay type: ADME, organism-based; settings: in vivo
[4] = Volume of distribution at steady state in iv dosed rat; assay type: ADME, organism-based; settings: in vivo, read-out: Vdss
[5] = biological target: T2, P2X purinoceptor 7 (Homo sapiens) (UniProt Q99572); experiment: Inhibition of human P2X7 receptor in human PBMC assessed as inhibition of BzATP-induced IL1-beta release at 0.03 uM
T2 sequence (whole entry): T1 sequence (Q99572 whole entry)

P2X purinoceptor 7 [6] = biological target: T1, P2X purinoceptor 7; experiment: Antagonist activity at P2X7 receptor in human lymphocytes assessed as inhibition of ATP-induced Ba2+ influx; assay type: functional, cell-based
P2X purinoceptor 7 [7] = biological target: T1, P2X purinoceptor 7; experiment: Antagonist activity at P2X7 receptor in human THP1 cells assessed as inhibition of BzATP-induced ethidium uptake; assay type: functional, cell-based, THP-1
[8] = Plasma clearance in rat; assay type: ADME, organism-based
[9] = Half life in rat; assay type: ADME, organism-based; settings: in vivo
[10] = Metabolic stability in rat hepatocytes assessed as intrinsic clearance assessed per million cells; assay type: ADME, cell-based, Liver, Hepatocyte
[11] = Volume of distribution at steady state in rat; assay type: ADME, organism-based; settings: in vivo, read-out: Vdss
[12] = Oral bioavailability in rat; assay type: ADME, organism-based; settings: in vivo
[13] = biological target: T2, P2X purinoceptor 7 (Homo sapiens); experiment: Inhibition of human P2X7 receptor in human PBMC assessed as inhibition of BzATP-induced IL1-beta release at 0.3 uM
Rattus norvegicus [14] = experiment: Analgesic activity in po dosed rat model of joint pain assessed as inhibition of FCA-induced weight bearing capacity administered twice daily for 5 days; assay type: functional; settings: 120 h
Rattus norvegicus [15] = experiment: Antiinflammatory activity in po dosed rat acute inflammatory pain model assessed as inhibition of FCA-induced weight bearing capacity; assay type: functional
[16] = Metabolic stability in human liver microsomes assessed as half life; assay type: ADME, Microsome
P2X purinoceptor 7 [17] = biological target: T3, P2X purinoceptor 7 (Rattus norvegicus, UniProt Q64663); experiment: Activity at rat P2X7 receptor expressed in HEK cells assessed as effect on BzATP-induced ethidium uptake; assay type: cell-based, HEK293
T3 sequence (Q64663 whole entry): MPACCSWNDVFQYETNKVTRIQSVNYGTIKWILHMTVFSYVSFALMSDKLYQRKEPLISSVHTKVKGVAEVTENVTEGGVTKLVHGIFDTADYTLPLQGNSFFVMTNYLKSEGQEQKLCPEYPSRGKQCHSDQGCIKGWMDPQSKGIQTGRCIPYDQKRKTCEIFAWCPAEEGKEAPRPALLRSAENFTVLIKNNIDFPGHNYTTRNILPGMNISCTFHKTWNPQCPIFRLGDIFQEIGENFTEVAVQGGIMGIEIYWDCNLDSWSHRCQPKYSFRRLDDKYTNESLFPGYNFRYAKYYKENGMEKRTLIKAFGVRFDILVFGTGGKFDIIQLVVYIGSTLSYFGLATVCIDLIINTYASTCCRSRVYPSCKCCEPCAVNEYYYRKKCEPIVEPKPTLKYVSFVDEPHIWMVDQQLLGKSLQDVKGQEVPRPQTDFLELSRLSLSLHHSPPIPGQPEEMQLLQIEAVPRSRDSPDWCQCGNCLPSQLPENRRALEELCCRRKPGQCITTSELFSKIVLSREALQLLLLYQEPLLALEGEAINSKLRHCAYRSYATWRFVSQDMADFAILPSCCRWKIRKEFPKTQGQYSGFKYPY

[18] = Plasma clearance in Sprague-Dawley rat; assay type: ADME, organism-based
[19] = Half life in Sprague-Dawley rat; assay type: ADME, organism-based; settings: in vivo
[20] = Bioavailability in Sprague-Dawley rat; assay type: ADME, organism-based; settings: in vivo
[21] = Terminal phase volume of distribution in Sprague-Dawley rat; assay type: ADME, organism-based; settings: in vivo, read-out: Vbeta
[22] = Protein binding in rat plasma; assay type: ADME, cell-free; settings: read-out: PB (converted)
P2X purinoceptor 7 [23] = biological target: T1, P2X purinoceptor 7; experiment: Antagonist activity at human P2X7 receptor expressed in human U373 cells assessed as inhibition of BzATP-induced Yo-Pro uptake; assay type: functional, cell-based, U-373MG ATCC

## O=C(CNS(=O)(=O)c1cccc2cnccc12)N1CCN(c2ccc([N+](=O)[O-])cc2)CC1
P2X purinoceptor 7 [1]
  IC50: 20 nM

## Cc1ccccc1N=C(NC#N)N1CCN(C(=O)Nc2ccc(Cl)cc2)C(c2ccccc2)C1 (stereo not given)
[2]
  clearance: 68 mL/min/kg
[3]
  half-life: 0.9 h
[4]
  Vd: 5.3 L/kg

## O=C(NCC12CC3CC(CC(C3)C1)C2)c1ncnc2c1CCN(Cc1ccccc1)C2
[5]
  inhibition: 50%

## CN([C@@H](Cc1ccc(OS(=O)(=O)c2cccc3cnccc23)cc1)CN1CCN(c2ccccc2)CC1)S(=O)(=O)c1cccc2cnccc12
P2X purinoceptor 7 [6]
  IC50: 15.8 nM

## O=C(CC12CC3CC(CC(C3)C1)C2)Nc1ccccc1
P2X purinoceptor 7 [7]; read-out: pA2 (converted)
  Kb: 39.8 nM
[8]
  clearance: 47 mL/min/kg
[9]
  half-life: 1 h
[10]
  hepatocyte CLint: 5 µL/min/1e6 cells
[11]
  Vd: 2 L/kg

## Cc1ccc2c(N/C(=N\C#N)N3CCN(C(=O)c4ccc(Cl)cc4)CC3C(C)C)cccc2n1 (stereo not given)
[2]
  clearance: 23 mL/min/kg
[3]
  half-life: 4.4 h
[12]
  bioavailability: 5%
[4]
  Vd: 11.8 L/kg

## O=C(CNS(=O)(=O)c1cccc2cnccc12)N1CCN(c2ccccc2F)CC1
P2X purinoceptor 7 [1]
  IC50: 12.6 nM

## O=C(CC12CC3CC(CC(C3)C1)C2)Nc1ncnc2c1CCN(S(=O)(=O)c1ccc(F)cc1F)C2
[13]
  inhibition: > 75%

## O=C([C@H](Cc1ccc(OS(=O)(=O)c2cccc3cnccc23)cc1)NS(=O)(=O)c1cccc2cnccc12)N1CCN(c2ccc(F)cc2)CC1
P2X purinoceptor 7 [1]
  IC50: 6.31 nM

## CN1C(=O)CCC1C(=O)NCc1ccc(Cl)cc1Cl (stereo not given)
Rattus norvegicus [14]
  ED50: < 20 mg/kg
Rattus norvegicus [15]
  ED50: < 20 mg/kg

## O=C(NCC12CC3CC(CC(C3)C1)C2)c1cc(Cl)ccc1Cl
[8]
  clearance: 100 mL/min/kg
[9]
  half-life: 0.5 h
[10]
  hepatocyte CLint: > 100 µL/min/1e6 cells
[11]
  Vd: 3 L/kg

## O=C(Cc1ccc(C(F)(F)F)c(F)c1)Nc1c(Cl)ccc2c(=O)n(CCO)ccc12
P2X purinoceptor 7 [7]
  IC50: 6.31 nM
[16]
  half-life: 3.7 h
[12]
  bioavailability: > 75%

## Clc1cccc(-n2ncnc2NCc2cccnc2N2CCCC2)c1Cl
P2X purinoceptor 7 [17]
  IC50: 25.1 nM

## O=C(CNS(=O)(=O)c1cccc2cnccc12)N1CCN(Cc2ccccc2)CC1
P2X purinoceptor 7 [1]
  IC50: 31.6 nM

## CN([C@@H](Cc1ccc(OS(=O)(=O)c2cccc3cnccc23)cc1)C(=O)N1CCN(c2ccc(Cl)cc2)CC1)S(=O)(=O)c1cccc2cnccc12
P2X purinoceptor 7 [1]
  IC50: 100 nM

## O=C(NCC12CC3CC(CC(C3)C1)C2)c1ccccc1Cl
[10]
  hepatocyte CLint: > 100 µL/min/1e6 cells

## CN([C@@H](Cc1ccc(OS(=O)(=O)c2cccc3cnccc23)cc1)C(=O)N1CCN(CCc2ccccc2)CC1)S(=O)(=O)c1cccc2cnccc12
P2X purinoceptor 7 [1]
  IC50: 631 nM

## C=C1C2(C(=O)NNc3ccccc3)CCC(C2)C1(C)C (stereo not given)
P2X purinoceptor 7 [7]
  IC50: 50.1 nM
P2X purinoceptor 7 [17]
  IC50: 50.1 nM

## CN([C@@H](Cc1ccc(OS(=O)(=O)c2cccc3cnccc23)cc1)C(=O)N1CCC(Cc2ccccc2)CC1)S(=O)(=O)c1cccc2cnccc12
P2X purinoceptor 7 [1]
  IC50: 63.1 nM

## CN([C@@H](Cc1ccc(OS(=O)(=O)c2cccc3cnccc23)cc1)C(=O)N1CCN(c2ccc(F)cc2)CC1)S(=O)(=O)c1cccc2cnccc12
P2X purinoceptor 7 [1]
  IC50: 1.26 nM

## O=C(NNc1cccc2ncccc12)C12CC3CC(CC(C3)C1)C2
P2X purinoceptor 7 [7]
  IC50: 10 nM
P2X purinoceptor 7 [17]
  IC50: 39.8 nM

## COc1ccc(CC(=O)NC(N/C(=N/C#N)Nc2cccc3ncccc23)C(C)(C)C)cc1OC (stereo not given)
[18]
  clearance: 62 mL/min/kg
[19]
  half-life: 4 h
[20]
  bioavailability: 20%
[21]
  Vd: 21 L/kg

## CN([C@@H](Cc1ccc(OS(=O)(=O)c2cccc3cnccc23)cc1)C(=O)N1CCN(Cc2ccccc2)CC1)S(=O)(=O)c1cccc2cnccc12
P2X purinoceptor 7 [1]
  IC50: 20 nM

## Cc1ccc(C(=O)N2CC3CNCC(C2)O3)cc1NC(=O)CC12CC3CC(CC(C3)C1)C2
[22]
  fraction unbound: 0.34

## Cc1cccc([C@H]2NC(NCc3cccc(F)c3)=N[C@H]2c2cccc(C)c2)c1
P2X purinoceptor 7 [23]
  IC50: 126 nM
